Reference: patent publication US6706663B2, “Herbicidal 3-heterocyclic substituted benzisothiazole and benzisoxazole compounds” (Wyeth, priority 2000, dated 2004)

Experiments:
[1] = tested on: ECHCG (Echinochloa crus-galli); experiment: Postemergence herbicidal evaluation; type: in vivo, (L.) Beau
How it was run: (§1)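 Seedlings grown about two weeks in flats, sprayed, then kept under standard greenhouse care. Rated visually 4–5 weeks after treatment on a 0–9 scale (stand, vigour, malformation, size, chlorosis, overall appearance) relative to untreated control; repeat tests averaged.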

[2] = tested on: ABUTH (Abutilon theophrasti); experiment: Preemergence herbicidal evaluation; type: in vivo, Medic.; settings: preemergence, rated 4-5 weeks after treatment
CYPIR (Cyperus iria) = experiment: Flooded paddy, preemergence weed control; type: in vivo; settings: rated 3-4 weeks after treatment, 0-9 rating scale
How it was run: (§2)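 Flooded silt loam pots, seeds in upper 0.5 cm, water held 1.5–3 cm deep; greenhouse; visual 0-9 score vs control.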

[3] = tested on: GLXMAW (Soybean, Williams); experiment: Preemergence herbicidal evaluation; type: in vivo, Glycine max, (L.) Merr. cv Williams; settings: preemergence, rated 4-5 weeks after treatment
[4] = tested on: AMBEL (Ambrosia artemisifolia); experiment: Preemergence herbicidal evaluation; type: in vivo, L.; settings: preemergence, rated 4-5 weeks after treatment
How it was run: (§3)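 Visual 0–9 rating versus control (stand, vigor, malformation, size, chlorosis, overall appearance), scored four to five weeks post-treatment. Preemergence spray of aqueous acetone solution onto freshly seeded soil cups; plants grown under conventional greenhouse care.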

[5] = tested on: CHEAL (Chenopodium album); experiment: Preemergence herbicidal evaluation; type: in vivo, L.; settings: preemergence, rated 4-5 weeks after treatment
How it was run: as §3

[6] = tested on: CASOB (Cassia obtusifolia); experiment: Preemergence herbicidal evaluation; type: in vivo, L.; settings: preemergence, rated 4-5 weeks after treatment
How it was run: as §3

SETVI (Setaria viridis) = experiment: Postemergence herbicidal evaluation; type: in vivo, (L.) Beau
How it was run: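 Ratings use a 0-9 visual scale covering stand, vigor, malformation, size, chlorosis and appearance versus a control, scored 4-5 weeks post-spray. Roughly two-week-old seedlings received about 0.0040-1.000 kg/ha active, applied in 50/50 acetone/water with 0.5% TWEEN 20. Multiple tests per compound were averaged.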

[7] = tested on: TRZAWR (Wheat, Winter, cv Riband); experiment: Postemergence herbicidal evaluation; type: in vivo, Triticum aestivum
How it was run: as §1

[8] = tested on: ECHORC (Echinochloa oryzoides); experiment: Flooded paddy, preemergence weed control; type: in vivo, Echinochloa oryzoides (Ard.) Fritsch.; settings: rated 3-4 weeks after treatment, 0-9 rating scale
How it was run: as §2

ZEAMX (Corn, Field) = experiment: Preemergence herbicidal evaluation; type: in vivo, Zea mays, L.; settings: preemergence, rated 4-5 weeks after treatment
[9] = tested on: MOOVA (Monochoria vaginalis); experiment: Flooded paddy, preemergence weed control; type: in vivo, Presl.; settings: rated 3-4 weeks after treatment, 0-9 rating scale
How it was run: as §2

[10] = tested on: CYPSE (Cyperus serotinus); experiment: Flooded paddy, preemergence weed control; type: in vivo, Rottb.; settings: rated 3-4 weeks after treatment, 0-9 rating scale
How it was run: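 Herbicidal effect was scored visually on a 0–9 scale against an untreated control 3–4 weeks after treatment. Compounds were applied preemergence as 50/50 v/v aqueous/acetone mixtures into flood water (1.5–3 cm deep over silt loam), at roughly 0.0080 to 0.1250 kg/ha active ingredient.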

[11] = tested on: IPOHE (Ipomoea hederacea); experiment: Preemergence herbicidal evaluation; type: in vivo, (L.) Jacq.; settings: preemergence, rated 4-5 weeks after treatment
ORYSAT (Rice, Tebonnet) = experiment: Flooded paddy, post-transplant rice tolerance; type: in vivo, Oryza sativa, (L.) Tebonnet; settings: flooded paddy, post-transplant rice, rated 3-4 weeks after treatment, 0-9 rating scale
How it was run: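 Steps: transplant two ten-day-old seedlings into silt loam; flood to 1.5-3 cm above soil; apply herbicide post-transplant; maintain water on greenhouse benches; rate stand, vigor, malformation, size and chlorosis on a 0-9 visual scale versus control.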

[12] = tested on: SAGPY (Sagittaria pygmaea); experiment: Flooded paddy, preemergence weed control; type: in vivo, L.; settings: rated 3-4 weeks after treatment, 0-9 rating scale
How it was run: as §2

SMILES: Cc1cscc1-c1nsc2ccc(-n3c(=O)cc(C(F)(F)F)n(C)c3=O)cc12 [Compound 26, 1-methyl-3-[3-(4-methyl-3-thienyl)-1,2-benzisothiazol-5-yl]-6-(trifluoromethyl)uracil]
- Postemergence herbicidal rating, ECHCG ([1]; rate 0.0320 kg/ha): 3.0
- Postemergence herbicidal rating, ECHCG ([1]; rate 0.0620 kg/ha): 3.0
- ABUTH preemergence herbicidal rating ([2]; Rate 0.0620 kg/ha): 4.0
- ABUTH preemergence herbicidal rating ([2]; Rate 0.1250 kg/ha): 9.0
- ABUTH preemergence herbicidal rating ([2]; Rate 0.2500 kg/ha): 9.0
- herbicidal rating, CYPIR (CYPIR (Cyperus iria); rate 0.0080 kg/ha): 8.5
- herbicidal rating, CYPIR (CYPIR (Cyperus iria); rate 0.0320 kg/ha): 8.3
- herbicidal rating, CYPIR (CYPIR (Cyperus iria); rate 0.1250 kg/ha): 9.0
- GLXMAW preemergence herbicidal rating ([3]; Rate 0.0620 kg/ha): 1.0
- GLXMAW preemergence herbicidal rating ([3]; Rate 0.1250 kg/ha): 3.0
- GLXMAW preemergence herbicidal rating ([3]; Rate 0.2500 kg/ha): 4.5
- AMBEL preemergence herbicidal rating ([4]; Rate 0.0620 kg/ha): 3.0
- AMBEL preemergence herbicidal rating ([4]; Rate 0.1250 kg/ha): 6.0
- AMBEL preemergence herbicidal rating ([4]; Rate 0.2500 kg/ha): 8.5
- CHEAL preemergence herbicidal rating ([5]; Rate 0.0620 kg/ha): 9.0
- CHEAL preemergence herbicidal rating ([5]; Rate 0.1250 kg/ha): 9.0
- CHEAL preemergence herbicidal rating ([5]; Rate 0.2500 kg/ha): 9.0
- CASOB preemergence herbicidal rating ([6]; Rate 0.0620 kg/ha): 1.0
- CASOB preemergence herbicidal rating ([6]; Rate 0.1250 kg/ha): 3.5
- CASOB preemergence herbicidal rating ([6]; Rate 0.2500 kg/ha): 6.0
- Postemergence herbicidal rating, SETVI (SETVI (Setaria viridis); rate 0.0320 kg/ha): 7.0
- Postemergence herbicidal rating, SETVI (SETVI (Setaria viridis); rate 0.0620 kg/ha): 9.0
- Postemergence herbicidal rating, TRZAWR ([7]; rate 0.0320 kg/ha): 3.5
- Postemergence herbicidal rating, TRZAWR ([7]; rate 0.0620 kg/ha): 4.5
- herbicidal rating, ECHORC ([8]; rate 0.0080 kg/ha): 8.0
- herbicidal rating, ECHORC ([8]; rate 0.0320 kg/ha): 9.0
- herbicidal rating, ECHORC ([8]; rate 0.1250 kg/ha): 9.0
- ZEAMX preemergence herbicidal rating (ZEAMX (Corn, Field); Rate 0.0620 kg/ha): 2.5
- ZEAMX preemergence herbicidal rating (ZEAMX (Corn, Field); Rate 0.1250 kg/ha): 3.5
- ZEAMX preemergence herbicidal rating (ZEAMX (Corn, Field); Rate 0.2500 kg/ha): 6.5
- herbicidal rating, MOOVA ([9]; rate 0.0080 kg/ha): 9.0
- herbicidal rating, MOOVA ([9]; rate 0.0320 kg/ha): 9.0
- herbicidal rating, MOOVA ([9]; rate 0.1250 kg/ha): 9.0
- herbicidal rating, CYPSE ([10]; rate 0.0320 kg/ha): 0.0
- herbicidal rating, CYPSE ([10]; rate 0.1250 kg/ha): 3.0
- IPOHE preemergence herbicidal rating ([11]; Rate 0.0620 kg/ha): 1.5
- IPOHE preemergence herbicidal rating ([11]; Rate 0.1250 kg/ha): 4.0
- IPOHE preemergence herbicidal rating ([11]; Rate 0.2500 kg/ha): 6.0
- herbicidal rating, ORYSAT (rice tolerance) (ORYSAT (Rice, Tebonnet); rate 0.0080 kg/ha): 0.0
- herbicidal rating, ORYSAT (rice tolerance) (ORYSAT (Rice, Tebonnet); rate 0.0320 kg/ha): 2.0
- herbicidal rating, ORYSAT (rice tolerance) (ORYSAT (Rice, Tebonnet); rate 0.1250 kg/ha): 4.3
- herbicidal rating, SAGPY ([12]; rate 0.0080 kg/ha): 1.5
- herbicidal rating, SAGPY ([12]; rate 0.0320 kg/ha): 5.3
- herbicidal rating, SAGPY ([12]; rate 0.1250 kg/ha): 8.0

SMILES: Cc1cc(C)c(-c2nsc3ccc(-n4c(=O)cc(C(F)(F)F)n(C)c4=O)cc23)s1 [Compound 27, 3-[3-(3,5-dimethyl-2-thienyl)-1,2-benzisothiazol-5-yl]-1-methyl-6-(trifluoromethyl)uracil]
- Postemergence herbicidal rating, ECHCG ([1]; rate 0.0320 kg/ha): 4.0
- Postemergence herbicidal rating, ECHCG ([1]; rate 0.0620 kg/ha): 5.0
- ABUTH preemergence herbicidal rating ([2]; Rate 0.0620 kg/ha): 5.0
- ABUTH preemergence herbicidal rating ([2]; Rate 0.1250 kg/ha): 6.0
- ABUTH preemergence herbicidal rating ([2]; Rate 0.2500 kg/ha): 9.0
- herbicidal rating, CYPIR (CYPIR (Cyperus iria); rate 0.0080 kg/ha): 4.5
- herbicidal rating, CYPIR (CYPIR (Cyperus iria); rate 0.0320 kg/ha): 9.0
- herbicidal rating, CYPIR (CYPIR (Cyperus iria); rate 0.1250 kg/ha): 9.0
- GLXMAW preemergence herbicidal rating ([3]; Rate 0.0620 kg/ha): 1.0
- GLXMAW preemergence herbicidal rating ([3]; Rate 0.1250 kg/ha): 2.0
- GLXMAW preemergence herbicidal rating ([3]; Rate 0.2500 kg/ha): 1.0
- AMBEL preemergence herbicidal rating ([4]; Rate 0.0620 kg/ha): 5.0
- AMBEL preemergence herbicidal rating ([4]; Rate 0.1250 kg/ha): 5.0
- AMBEL preemergence herbicidal rating ([4]; Rate 0.2500 kg/ha): 9.0
- CHEAL preemergence herbicidal rating ([5]; Rate 0.0620 kg/ha): 9.0
- CHEAL preemergence herbicidal rating ([5]; Rate 0.1250 kg/ha): 9.0
- CHEAL preemergence herbicidal rating ([5]; Rate 0.2500 kg/ha): 9.0
- CASOB preemergence herbicidal rating ([6]; Rate 0.0620 kg/ha): 1.0
- CASOB preemergence herbicidal rating ([6]; Rate 0.1250 kg/ha): 5.0
- CASOB preemergence herbicidal rating ([6]; Rate 0.2500 kg/ha): 4.0
- Postemergence herbicidal rating, SETVI (SETVI (Setaria viridis); rate 0.0320 kg/ha): 7.0
- Postemergence herbicidal rating, SETVI (SETVI (Setaria viridis); rate 0.0620 kg/ha): 9.0
- Postemergence herbicidal rating, TRZAWR ([7]; rate 0.0320 kg/ha): 5.0
- Postemergence herbicidal rating, TRZAWR ([7]; rate 0.0620 kg/ha): 5.5
- herbicidal rating, ECHORC ([8]; rate 0.0080 kg/ha): 6.5
- herbicidal rating, ECHORC ([8]; rate 0.0320 kg/ha): 9.0
- herbicidal rating, ECHORC ([8]; rate 0.1250 kg/ha): 9.0
- ZEAMX preemergence herbicidal rating (ZEAMX (Corn, Field); Rate 0.0620 kg/ha): 3.0
- ZEAMX preemergence herbicidal rating (ZEAMX (Corn, Field); Rate 0.1250 kg/ha): 3.0
- ZEAMX preemergence herbicidal rating (ZEAMX (Corn, Field); Rate 0.2500 kg/ha): 3.0
- herbicidal rating, MOOVA ([9]; rate 0.0080 kg/ha): 6.0
- herbicidal rating, MOOVA ([9]; rate 0.0320 kg/ha): 9.0
- herbicidal rating, MOOVA ([9]; rate 0.1250 kg/ha): 9.0
- herbicidal rating, CYPSE ([10]; rate 0.0080 kg/ha): 0.0
- herbicidal rating, CYPSE ([10]; rate 0.0320 kg/ha): 4.5
- herbicidal rating, CYPSE ([10]; rate 0.1250 kg/ha): 6.0
- IPOHE preemergence herbicidal rating ([11]; Rate 0.1250 kg/ha): 4.0
- IPOHE preemergence herbicidal rating ([11]; Rate 0.2500 kg/ha): 3.0
- herbicidal rating, ORYSAT (rice tolerance) (ORYSAT (Rice, Tebonnet); rate 0.0080 kg/ha): 1.0
- herbicidal rating, ORYSAT (rice tolerance) (ORYSAT (Rice, Tebonnet); rate 0.0320 kg/ha): 2.0
- herbicidal rating, ORYSAT (rice tolerance) (ORYSAT (Rice, Tebonnet); rate 0.1250 kg/ha): 3.7
- herbicidal rating, SAGPY ([12]; rate 0.0080 kg/ha): 0.0
- herbicidal rating, SAGPY ([12]; rate 0.0320 kg/ha): 1.7
- herbicidal rating, SAGPY ([12]; rate 0.1250 kg/ha): 8.3
